The values below come from ChEMBL document CHEMBL1201862, “PubChem BioAssay data set” (2004).

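Method: 48-hour compound exposure of cells in 96-well plates, five concentrations, linear interpolation of endpoints. The concentration for 50% growth inhibition is given as GI50.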 Calls of active or inactive are those of the source. Rule as the data show it: active = GI50 up to about 1.1 µM and inactive = higher. A value given as a limit tells only on which side of the number the result lay.

Holding throughout (assay): inhibition of tumour cell growth, NCI panel, 48 h
The subject of test [1] is A498.
Test [2] concerns COLO 205.
The test system of test [3] is DLD-1.
Test [4] deals with HCT-15.
The subject of test [5] is HL-60.
Test [6] concerns HOP-92.
Test [7] relates to HT-29.
Test [8] deals with NCI-H460.
Test [9] concerns OVCAR-3.
The test system of test [10] is OVCAR-4.
In test [11] the test system is SF-268.
Test [12] deals with SK-MEL-5.
The subject of test [13] is SK-OV-3.
Test [14] relates to SR.
Test [15] deals with SW-620.
The subject of test [16] is T47D.
Test [17] relates to TK-10.
For test [18], the system named is U-251.
For test [19], the system named is NCI-H226.

Take `ClC(Cl)=C1C(=C(Cl)Cl)C(Cl)(Cl)C1(Cl)Cl`: the GI50 is 11.6 µM (inactive) in [1]; 2.92 µM (inactive) in test [2]; 1.22 µM (inactive) in [3]; 1.14 µM in [4]; 0.625 µM (active) in [5]; 1.24 µM (inactive) in test [6]. Further, the GI50 in test [7] was 2.02 µM (inactive); in test [8], 3.93 µM (inactive); in test [9] it was 4.31 µM (inactive); in [10] it was 5.07 µM (inactive); in [11] it was 2.21 µM (inactive); in test [12] it was 2.82 µM (inactive). Besides, the GI50 in test [13] is 14.9 µM (inactive); in test [14], 0.214 µM (active); in [15], 1.18 µM (inactive); in test [16], 4.92 µM (inactive); in [17] it was 3.52 µM (inactive); in test [18], 5.41 µM (inactive).

For `CCc1ccccc1NC(=O)CCc1nnc(S)[nH]1`, the GI50 in test [1] is > 100 µM (inactive); in [2] it was > 100 µM (inactive); in test [3], > 100 µM (inactive); in test [4], greater than 100 µM; in test [5] it was > 100 µM (inactive); in [6] it was > 100 µM (inactive). Also, the GI50 in test [7], in test [19], in test [8], in test [9], in [10] and in test [11] was > 100 µM (inactive) throughout. The GI50 in test [12], in test [13], in [14], in test [15], in test [17] and in test [18] was > 100 µM (inactive) throughout.

For the compound `O=S(=O)(c1ccccc1)N1N=C2c3ccccc3CCC[C@H]2C1c1ccccc1` (some centres not stated), the GI50 in [1] was > 100 µM (inactive); in test [2], > 100 µM (inactive); in [3], > 100 µM (inactive); in test [4], greater than 100 µM; in [5], > 100 µM (inactive); in [6], > 100 µM (inactive). Moreover, the GI50 in test [7] was > 100 µM (inactive); in test [19], > 66.1 µM (inactive); in [8], 98.6 µM (inactive); in [9] it was > 100 µM (inactive); in test [10], > 100 µM (inactive); in [11], > 100 µM (inactive). The GI50 is > 100 µM (inactive) in test [12]; 34.2 µM (inactive) in test [13]; 95.7 µM (inactive) in test [14]; > 100 µM (inactive) in test [15]; > 100 µM (inactive) in [17]; > 100 µM (inactive) in test [18].

With `N#CC(C#N)=C(C(C#N)C#N)C(C#N)C#N`, the GI50 in [1] is > 100 µM (inactive); in test [2], > 100 µM (inactive); in [3], > 100 µM (inactive); in test [4], greater than 100 µM; in test [5] it was > 100 µM (inactive); in test [6], > 100 µM (inactive). The GI50 in test [7], in test [19], in test [8], in [9], in test [10] and in [11] was > 100 µM (inactive) in each case. Also, the GI50 in test [12], in test [13], in [14], in test [15], in test [17] and in test [18] was > 100 µM (inactive) in each case.
